{
  "source": "ChEMBL document CHEMBL4665816",
  "about": "“Syringoleosides A-H, Secoiridoids from Syringa dilatata Flowers and Their Inhibition of NO Production in LPS-Induced RAW 264.7 Cells” (J Nat Prod, 2020)",
  "data": [
    {"test_system": "RAW264.7", "assay": "Anti-inflammatory activity in mouse RAW264.7 cells assessed as inhibition of LPS-induced NO production after 24 hrs by Griess reagent-based assay", "type": "functional, cell-based", "settings": "RAW264.7, 24 h", "units": {"IC50": "µM"}, "values": [
      {"smiles": "C/C=C1/[C@H](O[C@@H]2O[C@H](CO)[C@@H](O)[C@H](O)[C@H]2O)OC=C(C(=O)OC)[C@H]1CC(=O)OC", "IC50": "> 80"},
      {"smiles": "C/C=C1/[C@H](O[C@@H]2O[C@H](CO)[C@@H](O)[C@H](O)[C@H]2O)OC=C(C(=O)OC)[C@H]1CC(=O)OC[C@H]1O[C@@H](OCCc2ccc(O)c(O)c2)[C@H](O)[C@@H](O)[C@@H]1O", "IC50": 48.9},
      {"smiles": "C/C=C1/[C@H](O[C@@H]2O[C@H](CO)[C@@H](O)[C@H](O)[C@H]2O)OC=C(C(=O)OC)[C@H]1CC(=O)OC[C@H]1O[C@@H](OCCc2ccccc2)[C@H](O)[C@@H](O)[C@@H]1O", "IC50": 65.7},
      {"smiles": "C/C=C1/[C@H](O[C@@H]2O[C@H](CO)[C@@H](O)[C@H](O)[C@H]2O)OC=C(C(=O)OC)[C@H]1CC(=O)OC[C@H]1O[C@@H](OCc2ccccc2)[C@H](O)[C@@H](O)[C@@H]1O", "IC50": 32.5},
      {"smiles": "C/C=C1/[C@H](O[C@@H]2O[C@H](CO)[C@@H](OC(=O)/C=C/c3ccc(O)c(O)c3)[C@H](O)[C@H]2O)OC=C(C(=O)OC)[C@H]1CC(=O)O[C@@H]1[C@@H](O)[C@@H](O)[C@H](O[C@H]2[C@H](O)[C@@H](O)[C@H](OCCc3ccc(O)c(O)c3)O[C@@H]2CO)O[C@H]1C", "IC50": "> 80"},
      {"smiles": "C/C=C1/[C@H](O[C@@H]2O[C@H](CO)[C@@H](O)[C@H](O)[C@H]2O)OC=C(C(=O)OC)[C@H]1CC(=O)O[C@H]1[C@H](OCCc2ccc(O)c(O)c2)O[C@H](CO)[C@@H](O)[C@@H]1O[C@@H]1O[C@@H](C)[C@H](O)[C@@H](O)[C@H]1O", "IC50": 42.1},
      {"smiles": "C/C=C1/[C@H](O[C@@H]2O[C@H](CO)[C@@H](O)[C@H](O)[C@H]2O)OC=C(C(=O)OC)[C@H]1CC(=O)OC[C@H]1O[C@@H](OCCc2ccc(O)cc2)[C@H](O)[C@@H](O)[C@@H]1O", "IC50": 59.8},
      {"smiles": "C/C=C1/[C@H](O[C@@H]2O[C@H](CO)[C@@H](O)[C@H](O)[C@H]2O)OC=C(C(=O)OC)[C@H]1CC(=O)O[C@H]1[C@H](O[C@@H]2OC=C(C(=O)OC)[C@@H](CC(=O)OC[C@H]3O[C@@H](OCCc4ccc(O)cc4)[C@H](O)[C@@H](O)[C@@H]3O)/C2=C\\C)O[C@H](CO)[C@@H](O)[C@@H]1O", "IC50": "> 80"},
      {"smiles": "C/C=C1/[C@H](O[C@@H]2O[C@H](CO)[C@@H](O)[C@H](O)[C@H]2O)OC=C(C(=O)OC)[C@H]1CC(=O)OC[C@H]1O[C@@H](Oc2ccc(O)cc2)[C@H](O)[C@@H](O)[C@@H]1O", "IC50": 58.3},
      {"smiles": "C/C=C1/[C@H](O[C@@H]2O[C@H](CO)[C@@H](O)[C@H](O)[C@H]2O)OC=C(C(=O)OC)[C@H]1CC(=O)O[C@@H]1[C@@H](O)[C@H](O[C@@H]2OC=C(C(=O)OC)[C@@H](CC(=O)OC[C@H]3O[C@@H](OCCc4ccc(O)cc4)[C@H](O)[C@@H](O)[C@@H]3O)/C2=C\\C)O[C@H](CO)[C@H]1O", "IC50": "> 80"},
      {"smiles": "C/C=C1/[C@H](O[C@@H]2O[C@H](CO)[C@@H](O)[C@H](O)[C@H]2O)OC=C(C(=O)OC)[C@H]1CC(=O)OC[C@H]1O[C@@H](Oc2ccc(/C=C/CO)cc2OC)[C@H](O)[C@@H](O)[C@@H]1O", "IC50": "> 80"},
      {"smiles": "C/C=C1/[C@H](O[C@@H]2O[C@H](CO)[C@@H](O)[C@H](O)[C@H]2O)OC=C(C(=O)OC)[C@H]1CC(=O)OCCc1ccc(O)c(O)c1", "note": "[OLEUROPEIN]", "IC50": "> 80"}
    ]}
  ]
}
